Measurements taken from patent publication US20110076339A1, “Colon Cleansing Method and Kit” (Kingston General Hospital, priority 2008, published 2011).

Assay: Patient diary of bowel movements after laxative use
Format: in vivo, human
Description: In patient tolerance studies described herein, treatment groups received an osmotic purgative on the evening before colonoscopy in split doses. Comparisons were made between the results of these osmotic purgatives. Also, a comparison was made between patients treated with osmotic purgative alone, and patients treated initially with stimulant laxative followed by osmotic purgative. Table III provides a summary of data gathered from diaries that were kept by 100 patients as they progressed through a colon cleansing regimen. Each patient recorded the time of the first and last bowel movement following consumption of a laxative, as well as the total number of bowel movements associated with consumption of a particular laxative.

[1] = 10 mg taken 2 nights before colonoscopy (e.g. at suppertime)
[2] = 10 mg taken 3 nights before colonoscopy (e.g. at suppertime)

For CC(=O)Oc1ccc(C(c2ccc(OC(C)=O)cc2)c2ccccn2)cc1 [Bisacodyl, bisacodyl], the “Mean time to first BM ± standard deviation” value [1] was 8.6 ± 5.3 h, the “Mean time to last BM ± standard deviation” value [1] was 16.5 ± 5.3 h and the “Total number BM ± standard deviation” value [1] was 3.8 ± 2. The “Mean time to first BM ± standard deviation” value [2] was 8.9 ± 5.1 h, the “Mean time to last BM ± standard deviation” value [2] was 16.5 ± 5.1 h and the “Total number BM ± standard deviation” value [2] was 3.4 ± 2.
